Experiment [1] addresses T1, Pendrin (Homo sapiens) (UniProt O43511).
T1 sequence (whole entry): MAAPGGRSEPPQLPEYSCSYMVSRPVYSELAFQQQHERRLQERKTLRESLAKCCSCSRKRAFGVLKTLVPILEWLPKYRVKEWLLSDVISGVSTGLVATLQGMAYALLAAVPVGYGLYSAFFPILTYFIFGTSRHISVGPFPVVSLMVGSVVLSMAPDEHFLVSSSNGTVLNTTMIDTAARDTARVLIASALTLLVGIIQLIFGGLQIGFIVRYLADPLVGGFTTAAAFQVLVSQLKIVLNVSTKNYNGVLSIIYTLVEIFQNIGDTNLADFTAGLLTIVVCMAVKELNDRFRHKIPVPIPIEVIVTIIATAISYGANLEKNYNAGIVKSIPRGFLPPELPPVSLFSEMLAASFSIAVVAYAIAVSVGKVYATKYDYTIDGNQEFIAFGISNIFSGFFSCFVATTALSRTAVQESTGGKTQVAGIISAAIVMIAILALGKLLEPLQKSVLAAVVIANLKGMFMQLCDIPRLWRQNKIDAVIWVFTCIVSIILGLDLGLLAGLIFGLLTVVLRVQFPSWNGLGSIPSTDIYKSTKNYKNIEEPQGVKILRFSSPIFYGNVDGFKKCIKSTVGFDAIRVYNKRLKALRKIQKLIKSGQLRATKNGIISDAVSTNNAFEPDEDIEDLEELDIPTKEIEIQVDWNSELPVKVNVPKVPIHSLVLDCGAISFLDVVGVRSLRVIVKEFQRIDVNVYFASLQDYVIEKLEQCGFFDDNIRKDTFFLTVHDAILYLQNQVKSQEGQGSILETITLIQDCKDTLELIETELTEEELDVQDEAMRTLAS
Nature of the experiment: Inhibition of human pendrin expressed in FRT cells co-expressing EYFP-HIF assessed as reduction in pendrin-mediated anion exchange at 25 uM incubated for 10 mins by pH-sensitive fluorescent probe BCECF-AM based fluorescence assay relative to control. The experiment is classed as cell-based.

For experiment [2], the target named is T1, Pendrin (Homo sapiens). Nature of the experiment: Inhibition of human pendrin expressed in FRT cells co-expressing EYFP-HIF assessed as reduction in pendrin-mediated anion exchange at 100 uM incubated for 10 mins by pH-sensitive fluorescent probe BCECF-AM based fluorescence assay relative to control. The experiment is classed as cell-based.

The source made the active and inactive calls. The rule behind the calls is not given here.

Consider `NS(=O)(=O)c1cc(C(=O)O)c(NCc2ccco2)cc1Cl`, for which the inhibition (commonly the drop in the measured response relative to a control, in per cent) in experiment [1] was “inactive”. Turning to `O=C(O)c1cccnc1Nc1cccc(C(F)(F)F)c1`, the inhibition in experiment [2] is less than 40%.

For the molecule `Cn1nc(COc2ccc(F)cc2)c2c1CCN(C(=O)Nc1cccc(Cl)c1)C2`, the inhibition in experiment [1] worked out at 60%.
